# Assay results published in ChEMBL document CHEMBL6087458, “The Discovery of a Novel AXL/Triple Angiokinase Inhibitor Based on 6-Chloro-Substituted Indolinone and Side Chain Methyl Substitution Inhibiting Pancreatic Cancer Growth and Metastasis” (J Med Chem, 2025).
# Assays:
# [1] = Cytotoxicity against mouse NIH/3T3 cells assessed as cell viability incubated for 72 hrs by MTT assay; assay type: toxicity, cell-based, NIH3T3
# [2] = Cytotoxicity against human HUVEC cells assessed as cell viability incubated for 72 hrs by MTT assay; assay type: toxicity, cell-based
# BXPC-3 = experiment: cells; details: Homo sapiens, BXPC-3, 72 h
# Description: Antiproliferative activity against human BXPC-3 cells assessed as cell viability incubated for 72 hrs by MTT assay
# MDA-MB-231 = experiment: cells; details: Homo sapiens, MDA-MB-231, 72 h
# Description: Antiproliferative activity against human MDA-MB-231 cells assessed as cell viability incubated for 72 hrs by MTT assay
SMILES,IC50 at 72 h [1] [nM],IC50 at 72 h [2] [nM],IC50 (BXPC-3) [nM],IC50 (MDA-MB-231) [nM]
COC(=O)c1ccc2c(c1)NC(=O)/C2=C(\Nc1ccc(N(C)C(=O)CN2CCOCC2)cc1)c1ccccc1,> 10000,> 10000,> 10000,> 10000
CN(C(=O)CN1CCN(CCO)CC1)c1ccc(N/C(=C2\C(=O)Nc3cc(Cl)ccc32)c2ccccc2)cc1,2200,1650,1540,1350
COC(=O)c1ccc2c(c1)NC(=O)/C2=C(\Nc1ccc(N(C)C(=O)[C@@H](C)N2CCN(C)CC2)cc1)c1ccccc1,3750,1360,–,–
CN1CCN(CC(=O)N(C)c2ccc(N/C(=C3\C(=O)Nc4cc(Cl)ccc43)c3ccccc3)cc2)CC1,3110,1800,2980,4540
COC(=O)c1ccc2c(c1)NC(=O)/C2=C(\Nc1ccc(N(C)C(=O)CN2CCC(N(C)C)CC2)cc1)c1ccccc1,3510,2970,2560,6340
CN(C(=O)CN1CCOCC1)c1ccc(N/C(=C2\C(=O)Nc3cc(Br)ccc32)c2ccccc2)cc1,> 10000,> 10000,> 10000,> 10000
COC(=O)c1ccc2c(c1)NC(=O)/C2=C(\Nc1ccc(N(C)C(=O)[C@H](C)N2CCN(C)CC2)cc1)c1ccccc1,1170,1650,–,–
COC(=O)c1ccc2c(c1)NC(=O)/C2=C(\Nc1ccc(N(C)C(=O)CN2CCCN(C)CC2)cc1)c1ccccc1,3820,2910,3730,7830
CCN1CCN(CC(=O)N(C)c2ccc(N/C(=C3\C(=O)Nc4cc(Br)ccc43)c3ccccc3)cc2)CC1,3200,1570,3570,3910
CN(C(=O)CN1CCN(CCO)CC1)c1ccc(N/C(=C2\C(=O)Nc3cc(Br)ccc32)c2ccccc2)cc1,2950,2490,3570,3210
CN(C(=O)CN1CCC(N(C)C)CC1)c1ccc(N/C(=C2\C(=O)Nc3cc(Br)ccc32)c2ccccc2)cc1,2310,1940,3020,2970
CN1CCCN(CC(=O)N(C)c2ccc(N/C(=C3\C(=O)Nc4cc(Cl)ccc43)c3ccccc3)cc2)CC1,4520,4980,3140,3870
CN(C)CCN(C)CC(=O)N(C)c1ccc(N/C(=C2\C(=O)Nc3cc(Br)ccc32)c2ccccc2)cc1,5890,4710,4220,4960
CN1CCCN(CC(=O)N(C)c2ccc(N/C(=C3\C(=O)Nc4cc(Br)ccc43)c3ccccc3)cc2)CC1,5980,3190,2150,3290
CCN1CCN(CC(=O)N(C)c2ccc(N/C(=C3\C(=O)Nc4cc(Cl)ccc43)c3ccccc3)cc2)CC1,1950,1850,1780,3190
CCN1CCN(CC(=O)N(C)c2ccc(N/C(=C3\C(=O)Nc4cc(C(=O)OC)ccc43)c3ccccc3)cc2)CC1,3440,2720,2310,5980
COC(=O)c1ccc2c(c1)NC(=O)/C2=C(\Nc1ccc(N(C)C(=O)CN(C)CCN(C)C)cc1)c1ccccc1,3570,2970,6010,> 10000
CC(C(=O)N(C)c1ccc(N/C(=C2\C(=O)Nc3cc(Cl)ccc32)c2ccccc2)cc1)N1CCSCC1 (racemic),> 10000,> 10000,> 10000,> 10000
CC(C(=O)N(C)c1ccc(N/C(=C2\C(=O)Nc3cc(Cl)ccc32)c2ccccc2)cc1)N1CCCN(C)CC1 (racemic),2200,690,1740,2040

SMILES,IC50 at 72 h [1] [nM],IC50 at 72 h [2] [nM],IC50 (BXPC-3) [nM],IC50 (MDA-MB-231) [nM]
COC(=O)c1ccc2c(c1)NC(=O)/C2=C(\Nc1ccc(N(C)C(=O)C(C)N2CCSCC2)cc1)c1ccccc1 (racemic),> 10000,> 10000,> 10000,> 10000
CC(C(=O)N(C)c1ccc(N/C(=C2\C(=O)Nc3cc(Br)ccc32)c2ccccc2)cc1)N1CCCN(C)CC1 (racemic),3900,2150,1950,1860
CC(C(=O)N(C)c1ccc(N/C(=C2\C(=O)Nc3cc(Br)ccc32)c2ccccc2)cc1)N(C)CCN(C)C (racemic),770,1770,3740,4540
COC(=O)c1ccc2c(c1)NC(=O)/C2=C(\Nc1ccc(N(C)C(=O)C(C)N2CCNCC2)cc1)c1ccccc1 (racemic),> 10000,> 10000,> 10000,> 10000
COC(=O)c1ccc2c(c1)NC(=O)/C2=C(\Nc1ccc(N(C)C(=O)C(C)N2CCCN(C)CC2)cc1)c1ccccc1 (racemic),2930,1810,1660,5780
COC(=O)c1ccc2c(c1)NC(=O)/C2=C(\Nc1ccc(N(C)C(=O)C(C)N(C)CCN(C)C)cc1)c1ccccc1 (racemic),2570,2000,5780,5980
CCN1CCN(C(C)C(=O)N(C)c2ccc(N/C(=C3\C(=O)Nc4cc(C(=O)OC)ccc43)c3ccccc3)cc2)CC1 (racemic),2100,1500,1640,5070
COC(=O)c1ccc2c(c1)NC(=O)/C2=C(\Nc1ccc(N(C)C(=O)C(C)N2CCOCC2)cc1)c1ccccc1 (racemic),> 10000,> 10000,> 10000,> 10000
CC(C(=O)N(C)c1ccc(N/C(=C2\C(=O)Nc3cc(Br)ccc32)c2ccccc2)cc1)N1CCSCC1 (racemic),> 10000,> 10000,> 10000,> 10000
CC(C(=O)N(C)c1ccc(N/C(=C2\C(=O)Nc3cc(Br)ccc32)c2ccccc2)cc1)N1CCN(C)CC1 (racemic),2140,950,1890,1440
CCN1CCN(C(C)C(=O)N(C)c2ccc(N/C(=C3\C(=O)Nc4cc(Br)ccc43)c3ccccc3)cc2)CC1 (racemic),1870,670,2440,2470
COC(=O)c1ccc2c(c1)NC(=O)/C2=C(\Nc1ccc(N(C)C(=O)C(C)N2CCC(N(C)C)CC2)cc1)c1ccccc1 (racemic),1990,1080,1690,5540
COC(=O)c1ccc2c(c1)NC(=O)/C2=C(\Nc1ccc(N(C)C(=O)C(C)N2CCN(CCO)CC2)cc1)c1ccccc1 (racemic),1370,1090,2470,4960
CC(C(=O)N(C)c1ccc(N/C(=C2\C(=O)Nc3cc(Br)ccc32)c2ccccc2)cc1)N1CCC(N(C)C)CC1 (racemic),1590,1110,1740,1490
COC(=O)c1ccc2c(c1)NC(=O)/C2=C(\Nc1ccc(N(C)C(=O)C(C)N2CCN(C)CC2)cc1)c1ccccc1 (racemic),2250,1430,3740,5340
CC(C(=O)N(C)c1ccc(N/C(=C2\C(=O)Nc3cc(Cl)ccc32)c2ccccc2)cc1)N1CCN(C)CC1 (racemic),1430,840,1890,1240
CC(C(=O)N(C)c1ccc(N/C(=C2\C(=O)Nc3cc(Cl)ccc32)c2ccccc2)cc1)N1CCOCC1 (racemic),> 10000,> 10000,> 10000,> 10000
CC(C(=O)N(C)c1ccc(N/C(=C2\C(=O)Nc3cc(Cl)ccc32)c2ccccc2)cc1)N1CCC(N(C)C)CC1 (racemic),980,830,2040,1980
